How the values were obtained:
[1] = molecular target: T1, recombinant human FABP3 protein (FABP3-induced Aβ42 oligomerization) (Homo sapiens, UniProt P05413); experiment: Western blot of Aβ42 oligomerization with recombinant FABP3 pre-incubated with artemisinin; format: biochemical; conditions: artemisinin 4 μM preincubated with FABP3 2.5 μM for four hours, then Aβ42 oligomers 2.5 μM 24 hours; 6E10 antibody, ImageJ; p<0.05
T1 construct: purchased Cayman Chemical
Method: Synthetic Aβ42 peptides (AnaSpec) were solubilized in hexafluoroisopropanol (HFIP), and then HFIP was allowed to be evaporated completely under nitrogen flow. Aβ42 peptides were resuspended using phosphate buffered saline (PBS) to […], and were incubated to assemble oligomers at room temperature for 24 hours prior to use. The oligomeric status of AP was verified by sodium dodecyl sulfate polyacrylamide gel electrophoresis (SDS-PAGE).
Afterwards, the oligomerization of Aβ42 was analyzed using western blot analysis and detected with 6E10 antibody.

[2] = system: SH-SY5Y cells transfected with human FABP3; experiment: MTT cell viability assay, Aβ42 cytotoxicity in FABP3-transfected SH-SY5Y cells; format: cell-based; conditions: pcDNA3/FABP3 SH-SY5Y cells, artemisinin (0-4 μM) pretreatment four hours, Aβ42 2.5 μM 24 hours; increased from 65% without artemisinin; p<0.01
Method: (§1) Human neuroblastoma SH-SY5Y cell line was obtained from American Type Culture Collection (ATCC® CRL-2266™) and maintained in Dulbecco's Modified Eagle Medium with nutrient mixture F-12 (DMEM/F12; Invitrogen) media supplemented with 10% FBS, 100 U/mL penicillin and 100 μg/mL streptomycin at 37° C. in a 5% CO2 humidified incubator.
(§2) Human FAPB3 cDNA, which was reverse transcribed from the total RNA of SH-SY5Y cells, was amplified by polymerase chain reaction (PCR) using primers (5′-[…] and 5′-TGCCTCTTCTCATAAGTG) and then cloned into pcDNA™3.1D/V5-His-TOPO vector (Invitrogen). SH-SY5Y cells stably expressing human FABP3 were obtained using lipofectamine transfection with selection via cultivation in DMEM/F12 medium (Gibco) containing 500 µg/mL G418 (Sigma-Aldrich).
Afterwards, purple formazan crystals formed by reduction of MTT in the mitochondria of living cells were dissolved in 100 μl solution containing 10% SDS and 0.01N HCl. The absorbance was measured at 570 nm with an ELISA reader (pQuant; BioTek Instruments, Inc).

[3] = system: stably transfected human FABP3-SH-SY5Y cells; experiment: Western blot of Aβ42 oligomerization in stably transfected human FABP3-SH-SY5Y cells; format: cell-based; conditions: artemisinin 4 μM pretreatment 4 hours, Aβ42 2.5 μM 24 hours
Method: as §1
as §2, with “5′-TGCCTCTrTCTCATAAGTG)” for “5′-TGCCTCTTCTCATAAGTG)”, “μg/mL” for “µg/mL”
Then, the stably transfected human FABP3-SH-SY5Y cells were washed with PBS and lysed with radioimmunoprecipitation (RIPA) buffer supplemented with cOmplete™ Protease Inhibitor Cocktail (Sigma-Aldrich). The samples with equal amounts of total protein (50 μg) were fractionated by SDS-PAGE and electrotransferred to a polyvinylidene difluoride (PVDF) membrane (Millipore). The membrane was blocked for one hour at room temperature with 10% nonfat milk in TBST buffer (20 mM Tris-HCl, 150 mM NaCl, and 0.1% Tween 20); thereafter, the membrane was incubated with 6E10 (BioLegend), FABP3 (Santa Cruz) or GAPDH (Santa Cruz) antibodies. […]

3×Tg AD transgenic mice [4] = experiment: Novel object recognition test; format: in vivo; conditions: 3×Tg AD mice, artemisinin 1 mg/kg i.p. every other day from 12 to 36 weeks of age, versus untreated 3×Tg AD mice; p<0.05
Method: In the present embodiment, 3×Tg AD transgenic mice were obtained from the Jackson Laboratory (004807), and wild-type C57BL/6 mice were purchased from the National Laboratory Animal Center. The body weights of the animals were measured every eight weeks from 12th to 36th week-old. The animals were i.p. administered with pure water or artemisinin (1 mg/kg) every other day from 12 weeks to 36 weeks of age; the WT-W group was water vehicle-treated wild-type mice; the AD-W group was water vehicle-treated 3×Tg AD transgenic mice; and AD-R group was artemisinin-treated 3×Tg AD transgenic mice. The animals were examined by using behavioral tasks, including Morris water maze test, spontaneous alternation behavior Y-maze test, and novel object recognition task test, when they were 36-week-old. The novel object recognition was conducted to examine whether artemisinin can restore recognition memory, which involves the frontal cortex, entorhinal cortex and hippocampus; it was used to evaluate the inborn tendency of the rodents to explore novel objects rather than familiar ones. During the first two days, mice were habituated to open field (50×40 cm, with 22 cm in height) for two sessions of 10 min each day in order to be familiar with the apparatus. […] The discrimination index was calculated as percentage ratio of TB/(TA+TB)×100. […]

3×Tg AD transgenic mice [5] = experiment: Spontaneous alternation behavior Y-maze test; format: in vivo; conditions: 3×Tg AD mice, artemisinin 1 mg/kg i.p. every other day from 12 to 36 weeks of age, tested at 36 weeks
Method: In the present embodiment, 3×Tg AD transgenic mice were obtained from the Jackson Laboratory (004807), and wild-type C57BL/6 mice were purchased from the National Laboratory Animal Center. The body weights of the animals were measured every eight weeks from 12th to 36th week-old. The animals were i.p. administered with pure water or artemisinin (1 mg/kg) every other day from 12 weeks to 36 weeks of age; the WT-W group was water vehicle-treated wild-type mice; the AD-W group was water vehicle-treated 3×Tg AD transgenic mice; and AD-R group was artemisinin-treated 3×Tg AD transgenic mice. The animals were examined by using behavioral tasks, including Morris water maze test, spontaneous alternation behavior Y-maze test, and novel object recognition task test, when they were 36-week-old. The spontaneous alternation behavior Y-maze test was used to estimate short-term memory. The Y-maze was a three-arm maze (30 cm long and 5 cm wide with 12 cm in height) with equal angles and the arms were labeled A, B, and C. The 36-week-old mice (n=6 per group) administered with aforementioned treatment were initially placed within one arm, and the number of arm entries and the number of alternations were recorded for eight min period for each mouse. […] The percentage of alternation was calculated by the following equation: Alternation (%)=[(Number of alternation)/(Total arm entries−2)]×100.

3×Tg AD transgenic mice [6] = experiment: Morris water maze test; format: in vivo; conditions: 3×Tg AD mice, artemisinin 1 mg/kg i.p. every other day from 12 to 36 weeks of age, tested at 36 weeks; p<0.05
Method: In the present embodiment, 3×Tg AD transgenic mice were obtained from the Jackson Laboratory (004807), and wild-type C57BL/6 mice were purchased from the National Laboratory Animal Center. The body weights of the animals were measured every eight weeks from 12th to 36th week-old. The animals were i.p. administered with pure water or artemisinin (1 mg/kg) every other day from 12 weeks to 36 weeks of age; the WT-W group was water vehicle-treated wild-type mice; the AD-W group was water vehicle-treated 3×Tg AD transgenic mice; and AD-R group was artemisinin-treated 3×Tg AD transgenic mice. The animals were examined by using behavioral tasks, including Morris water maze test, spontaneous alternation behavior Y-maze test, and novel object recognition task test, when they were 36-week-old. To evaluate whether artemisinin ameliorates the spatial learning and memory deficits, the Morris water maze test was performed. […] After the last trail, mice were subjected to the probe test that the platform was removed, and the time spent in quadrants was recorded by a computer-controlled system.

T1 sequence (P05413 whole entry): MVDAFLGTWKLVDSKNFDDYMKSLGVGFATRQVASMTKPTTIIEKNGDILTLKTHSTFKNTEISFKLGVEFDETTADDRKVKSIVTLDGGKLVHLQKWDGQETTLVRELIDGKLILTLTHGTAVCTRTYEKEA

- decrease of Aβ42 tetramer induced by FABP3 [1]: 156%
- decrease of Aβ42 trimer induced by FABP3 [1]: 144%
Compound: C[C@@H]1CC[C@H]2[C@@H](C)C(=O)O[C@@H]3O[C@@]4(C)CC[C@@H]1[C@]32OO4 [artemisinin]
- cell viability [2]: 85%
- decrease of Aβ42 tetramer induced by FABP3 overexpression [3]: 87%
- decrease of Aβ42 trimer induced by FABP3 overexpression [3]: 78%
- increment in the discrimination index (3×Tg AD transgenic mice [4]): 56%
- spatial working memory (spontaneous alternation rate) (3×Tg AD transgenic mice [5]): restored spatial working memory to the extent similar as that of the wild-type group
- time in finding the hidden platform (3×Tg AD transgenic mice [6]): significantly less time
